The values that follow come from ChEMBL document CHEMBL5725612, “Pyridone FabI inhibitors and uses thereof” (2018).

As usually defined, the Ki is a dissociation constant, usually derived from enzyme kinetics or from competition with a known ligand.

The test addresses T1, Enoyl-[acyl-carrier-protein] reductase [NADPH] FabI (Staphylococcus aureus, UniProt Q6GI75).
T1 sequence (Q6GI75 whole entry): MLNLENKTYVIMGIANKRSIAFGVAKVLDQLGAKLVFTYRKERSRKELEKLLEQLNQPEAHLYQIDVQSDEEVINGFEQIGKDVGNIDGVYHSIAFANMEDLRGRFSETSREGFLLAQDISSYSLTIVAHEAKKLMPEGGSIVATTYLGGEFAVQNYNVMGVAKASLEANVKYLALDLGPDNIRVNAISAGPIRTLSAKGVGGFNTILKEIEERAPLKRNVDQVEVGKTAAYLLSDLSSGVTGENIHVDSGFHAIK
The experiment in a line: Tight-binding assay: Kinetics were performed on a Cary 100 spectrophotometer (Varian) at 20° C. Reaction velocities were measured by monitoring the oxidation of NAD(P)H to NAD(P)+ at 340 nm (Figure US10071965-20180911-P00001=6220 M−1 cm−1). For saFabI, the reaction mixture was identical to that described previously for progress curve experiments (Schiebel et al. (2012). Structure 20:802-13). For ecFabI, the final reaction mixture contained ecFabI (75 nM), trans-2-butenoyl-CoA (800 μM; Sigma and Advent Bio), NADH (300 μM; Sigma), NAD+ (400 μM; Sigma), and inhibitor (2 v/v % DMSO) in 50 mM potassium phosphate, pH 7.5, 150 mM NaCl, 8 v/v % glycerol. For InhA, the final reaction mixture contained InhA (100 nM), trans-2-octenoyl-CoA (200 μM), NADH (250 μM), NAD+ (200 μM), and inhibitor (2 v/v % DMSO) in 30 mM PIPES, pH 6.8, 150 mM NaCl, 1 mM EDTA, 8 v/v % glycerol. The resulting curves were fit to the Morrison and Walsh integrated rate equation (Equation 1) (Morrison et al.

On to `Oc1ccccc1Oc1ccccc1`, for which the Ki amounted to 24.5 µM.
